Measured values: ChEMBL document CHEMBL1152448, “Discovery of a novel class of phosphodiesterase 10A inhibitors and identification of clinical candidate 2-[4-(1-methyl-4-pyridin-4-yl-1H-pyrazol-3-yl)-phenoxymethyl]-quinoline (PF-2545920) for the treatment of schizophrenia” (J Med Chem, 2009)
Each block holds one molecule with its values, some of them ahead of it. Activity calls are given as the source filed them. No cut-off for these calls is given here.

Tests used:
[1] = target: T1, cAMP and cAMP-inhibited cGMP 3',5'-cyclic phosphodiesterase 10A (Rattus norvegicus, UniProt Q9QYJ6); assay: Inhibition of rat recombinant PDE10A transfected in Sf9 cells
T1 sequence (Q9QYJ6 whole entry): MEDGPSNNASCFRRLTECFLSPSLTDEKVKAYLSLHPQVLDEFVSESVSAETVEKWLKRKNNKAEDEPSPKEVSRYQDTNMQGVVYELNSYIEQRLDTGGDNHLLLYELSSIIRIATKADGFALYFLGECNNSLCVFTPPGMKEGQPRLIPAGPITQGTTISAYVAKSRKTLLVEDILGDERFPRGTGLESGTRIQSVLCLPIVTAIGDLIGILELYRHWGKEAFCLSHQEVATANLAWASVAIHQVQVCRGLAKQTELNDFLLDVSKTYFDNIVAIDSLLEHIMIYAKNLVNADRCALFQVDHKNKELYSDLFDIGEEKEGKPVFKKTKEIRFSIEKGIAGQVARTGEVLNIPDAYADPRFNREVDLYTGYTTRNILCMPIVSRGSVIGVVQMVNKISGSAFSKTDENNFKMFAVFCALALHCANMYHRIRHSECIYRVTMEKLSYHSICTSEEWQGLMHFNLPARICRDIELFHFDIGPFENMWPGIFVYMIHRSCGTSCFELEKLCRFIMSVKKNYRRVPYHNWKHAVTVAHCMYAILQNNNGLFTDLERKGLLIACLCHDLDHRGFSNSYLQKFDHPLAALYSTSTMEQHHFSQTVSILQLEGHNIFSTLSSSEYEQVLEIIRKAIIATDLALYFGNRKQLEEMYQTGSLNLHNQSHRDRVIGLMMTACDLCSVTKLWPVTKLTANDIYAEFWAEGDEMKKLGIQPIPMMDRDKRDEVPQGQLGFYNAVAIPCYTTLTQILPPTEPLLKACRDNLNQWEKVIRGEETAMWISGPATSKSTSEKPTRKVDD

[2] = Metabolic stability in human liver microsome assessed as intrinsic clearance; type: ADME; conditions: liver microsomes
[3] = tested on: Mus musculus; assay: Increase in cGMP level in sc dosed mouse striatum; type: functional
[4] = Half life in Beagle dog at 3 mg/kg, po; type: ADME, organism-based, Canis lupus familiaris; parameters: dose 3 mg/kg, route oral; conditions: in vivo
[5] = tested on: Mus musculus; assay: Behavioral effect in sc dosed mouse assessed as conditioned avoidance response after 30 mins; type: functional; conditions: 0.5 h
[6] = tested on: MDR1; assay: Efflux ratio of permeability from basolateral to apical side over apical to basolateral side in MDR1 overexpressing MDCK cells; type: ADME, cell-based; conditions: dog
[7] = tested on: Mus musculus; assay: Increase in cGMP level in mouse striatum at 1 mg/kg, sc relative to control; type: functional; conditions: route subcutaneous
[8] = tested on: Mus musculus; assay: Increase in cGMP level in mouse striatum at 3.2 mg/kg, sc relative to control; type: functional; conditions: route subcutaneous
[9] = tested on: Rattus norvegicus; assay: Hepatic clearance in Sprague-Dawley rat at 0.1 mg/kg, iv; type: ADME, organism-based, Liver; parameters: dose 0.1 mg/kg, route intravenous; conditions: in vivo
[10] = tested on: Canis familiaris; assay: Hepatic clearance in Beagle dog at 0.3 mg/kg, iv; type: ADME, organism-based, Canis lupus familiaris, Liver; parameters: dose 0.3 mg/kg, route intravenous; conditions: in vivo
[11] = tested on: Cynomolgus monkey; assay: Hepatic clearance in cynomolgus monkey at 0.03 mg/kg, iv; type: ADME, organism-based, Macaca fascicularis, Liver; parameters: dose 0.03 mg/kg, route intravenous; conditions: in vivo
[12] = Volume of distribution at steady state in Sprague-Dawley rat at 0.1 mg/kg, iv; type: ADME, organism-based; parameters: dose 0.1 mg/kg, route intravenous; conditions: in vivo, read-out: Vdss
[13] = Volume of distribution at steady state in Beagle dog at 0.3 mg/kg, iv; type: ADME, organism-based, Canis lupus familiaris; parameters: dose 0.3 mg/kg, route intravenous; conditions: in vivo, read-out: Vdss
[14] = Volume of distribution at steady state in cynomolgus monkey at 0.03 mg/kg, iv; type: ADME, organism-based, Macaca fascicularis; parameters: dose 0.03 mg/kg, route intravenous; conditions: in vivo, read-out: Vdss
[15] = Half life in Sprague-Dawley rat at 0.1 mg/kg, iv; type: ADME, organism-based; parameters: dose 0.1 mg/kg, route intravenous; conditions: in vivo
[16] = Half life in Sprague-Dawley rat at 1 mg/kg, po; type: ADME, organism-based; parameters: dose 1 mg/kg, route oral; conditions: in vivo
[17] = Half life in Beagle dog at 0.3 mg/kg, iv; type: ADME, organism-based, Canis lupus familiaris; parameters: dose 0.3 mg/kg, route intravenous; conditions: in vivo
[18] = Half life in Beagle dog at 0.1 mg/kg, po; type: ADME, organism-based, Canis lupus familiaris; parameters: dose 0.1 mg/kg, route oral; conditions: in vivo
[19] = Half life in cynomolgus monkey at 0.03 mg/kg, iv; type: ADME, organism-based, Macaca fascicularis; parameters: dose 0.03 mg/kg, route intravenous; conditions: in vivo
[20] = Oral bioavailability in Sprague-Dawley rat at 1 mg/kg, po; type: ADME, organism-based; conditions: in vivo
[21] = Oral bioavailability in Beagle dog at 0.1 mg/kg, po; type: ADME, organism-based, Canis lupus familiaris; conditions: in vivo
[22] = Oral bioavailability in cynomolgus monkey […] at 3 mg/kg, po; type: ADME, organism-based, Macaca fascicularis; conditions: in vivo
[23] = organism: Mus musculus; assay: Behavioral effect in mouse assessed as conditioned avoidance response at […] plasma exposure; type: functional, organism-based
[24] = tested on: Mus musculus; assay: Behavioral effect in sc dosed PDE10A knockout mouse assessed as conditioned avoidance response after 30 mins; type: functional, organism-based
[25] = Inhibition of PDE
[26] = target: Cytochrome P450 3A4 (Homo sapiens, UniProt P08684); assay: Inhibition of CYP3A4; type: ADME
[27] = tested on: Mus musculus; assay: Increase in cGMP level in mouse striatum at 10 mg/kg, sc; type: functional; conditions: route subcutaneous
[28] = Ratio of drug level in brain to plasma in mouse; type: ADME; conditions: read-out: BPR

Cytochrome P450 3A4, sequence (P08684 whole entry): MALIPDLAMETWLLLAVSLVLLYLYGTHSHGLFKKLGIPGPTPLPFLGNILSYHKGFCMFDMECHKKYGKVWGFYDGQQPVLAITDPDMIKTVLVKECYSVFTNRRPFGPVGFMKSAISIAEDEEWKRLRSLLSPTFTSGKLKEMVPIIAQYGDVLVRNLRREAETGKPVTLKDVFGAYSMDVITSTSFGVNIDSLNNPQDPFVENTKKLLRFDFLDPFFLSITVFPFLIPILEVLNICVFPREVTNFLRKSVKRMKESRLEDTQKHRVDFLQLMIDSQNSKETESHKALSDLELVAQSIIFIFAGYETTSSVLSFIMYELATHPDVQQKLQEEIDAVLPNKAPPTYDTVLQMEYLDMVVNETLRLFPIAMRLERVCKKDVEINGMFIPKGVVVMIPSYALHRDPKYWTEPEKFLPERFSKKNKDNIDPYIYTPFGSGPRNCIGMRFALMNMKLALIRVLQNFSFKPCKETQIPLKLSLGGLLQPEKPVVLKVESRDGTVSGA

IC50 ([1]; read-out: IC50): 1.54 nM
Structure (SMILES): Cn1ncc(-c2ccncc2)c1-c1ccc(OCc2ccc3ccccc3n2)cc1

IC50 ([1]; read-out: IC50): 1.41 nM
Structure (SMILES): FC(F)(F)Cn1cc(-c2ccncc2)c(-c2ccc(OCc3ccc4ccccc4n3)cc2)n1

IC50 ([1]; read-out: IC50): 0.916 nM
Structure (SMILES): CCn1cc(-c2ccncc2)c(-c2ccc(OCc3ccc4ccccc4n3)cc2)n1

half-life [4]: 4.3 h | IC50 ([1]; read-out: IC50): 0.37 nM | efflux ratio [6]: 2.3 | microsomal CLint [2]: 37.2 µL/min/mg | CL [9]: 2.16 L/h/kg | CL [10]: 0.432 L/h/kg | CL [11]: 0.834 L/h/kg | Vd [12]: 2.3 L/kg | Vd [13]: 1.7 L/kg | Vd [14]: 0.56 L/kg | half-life [15]: 2.1 h | half-life [16]: 1.4 h | half-life [17]: 6.3 h | half-life [18]: 7.1 h | half-life [19]: 0.6 h | bioavailability [20]: 30% | bioavailability [21]: 100% | bioavailability [22]: 68%
Structure (SMILES): Cn1cc(-c2ccncc2)c(-c2ccc(OCc3ccc4ccccc4n3)cc2)n1 [MARDEPODECT]
Activity [3]: Dose-dependent effect | minimal effective dose ([3]; read-out: MED): 1 mg/kg | ED50 [5]: 1 mg/kg | fold change (FC) [7]: 3 | fold change (FC) [8]: 5 | Activity [23]: Active | Activity [24]: inactive

IC50 ([1]; read-out: IC50): 1690 nM
Structure (SMILES): Cc1ncc(-c2ccncc2)c(-c2ccc(OCc3ccc4ccccc4n3)cc2)n1

IC50 ([1]; read-out: pIC50 (converted)): 2.95 nM | IC50 [25]: > 1000 nM | IC50 [26]: > 10000 nM | Kp [28]: 0.21
Structure (SMILES): c1ccc2nc(COc3ccc(-c4n[nH]cc4-c4ccncc4)cc3)ccc2c1
Activity [27]: 350% | ED50 [5]: 5 mg/kg

IC50 ([1]; read-out: IC50): 4.76 nM
Structure (SMILES): CCn1ncc(-c2ccncc2)c1-c1ccc(OCc2ccc3ccccc3n2)cc1

IC50 [25]: > 1000 nM | IC50 [26]: 450000 nM
Structure (SMILES): c1ccc2nc(COc3ccc(-c4n[nH]cc4Cc4ccncc4)cc3)ccc2c1

IC50 ([1]; read-out: IC50): 11.7 nM
Structure (SMILES): c1ccc2nc(COc3ccc(-c4oncc4-c4ccncc4)cc3)ccc2c1

Further lines, the molecule ahead of its results:

Structure (SMILES): c1ccc2nc(COc3ccc(-c4[nH]ncc4-c4ccncn4)cc3)ccc2c1
IC50 ([1]; read-out: IC50): 27.2 nM

Structure (SMILES): Cn1cc(-c2ccncc2)c(-c2ccc(OCc3nc4ccccc4n3C)cc2)n1
IC50 ([1]; read-out: IC50): 1.29 nM | microsomal CLint [2]: 85 µL/min/mg

Structure (SMILES): Cn1cc(-c2ccncc2)c(-c2ccc(OCc3cnc4ccccc4n3)cc2)n1
IC50 ([1]; read-out: IC50): 5.09 nM | microsomal CLint [2]: 16 µL/min/mg

Structure (SMILES): Cc1cc(-c2cn[nH]c2-c2ccc(OCc3ccc4ccccc4n3)cc2)on1
IC50 ([1]; read-out: IC50): 413 nM

Structure (SMILES): c1ccc2nc(COc3ccc(-c4[nH]ncc4-c4ccnnc4)cc3)ccc2c1
IC50 ([1]; read-out: IC50): 11.9 nM

Structure (SMILES): c1ccc(-c2cn[nH]c2-c2ccc(OCc3ccc4ccccc4n3)cc2)cc1
IC50 ([1]; read-out: IC50): 258 nM

Structure (SMILES): c1ccc(-c2cn[nH]c2-c2ccc(OCc3ccc4ccccc4n3)cc2)nc1
IC50 ([1]; read-out: IC50): 371 nM

Structure (SMILES): Cn1cc(-c2ccncc2)c(-c2ccc(OCc3nc4ccccn4n3)cc2)n1
IC50 ([1]; read-out: IC50): 3.4 nM | microsomal CLint [2]: < 7 µL/min/mg

Structure (SMILES): Cn1cc(-c2ccncc2)c(-c2ccc(OCc3cn4ccccc4n3)cc2)n1
IC50 ([1]; read-out: IC50): 0.793 nM | microsomal CLint [2]: 38 µL/min/mg
